As a reminder, the IC50 is the point on the concentration scale where inhibition reaches its midpoint.

Where a name gives a salt, the structure may show the parent alone. Bounds are passed on as bounds.

Our source for the IC50 values is paper PMC6273765, “Synthesis and Biological Evaluation of Novel Aromatic Imide-Polyamine Conjugates” (Molecules, 2016).

One assay deals with HCT-116 cells. Kind of assay: MTT cytotoxicity, HCT-116. The format is cell-based, human. The settings on record: mean of three experiments.
The next assay deals with HepG2 cells. Nature of the assay: MTT cytotoxicity, HepG2. The settings on record: mean of three experiments. It is filed as cell-based, human.
The next assay has as its system K562 cells. Nature of the assay: MTT cytotoxicity, K562. It is filed as cell-based, human. The settings on record: mean of three experiments.
In the next assay the test system is QSG-7701 cells. Kind of assay: MTT cytotoxicity, QSG-7701 normal hepatocyte. The format is cell-based. The conditions noted are these: normal hepatocyte cell line.
A further assay deals with MDA-MB-231 cells. Nature of the assay: MTT cytotoxicity, MDA-MB-231. It is filed as cell-based. The conditions noted are these: Homo sapiens, 48 h, mean of three experiments.

As for “2-{3-[4-(3-Aminopropylamino)butylamino]butyl}-6-acetyl-1H-benz[de]isoquinoline-1,3(2H)-dione trihydrochloride [5e]”, the IC50 was found to be 16.9 µM in the assay on HCT-116 cells (48 h), 22.1 µM in the assay on HepG2 cells (48 h), 12.2 µM with K562 cells (48 h) and 27.7 µM with QSG-7701 cells (48 h).
In the case of `NCCCNCCCNCC(=O)NCCCN1C(=O)c2cccc3cccc(c23)C1=O` [11b, 2-(3-(3-Aminopropylamino)propylamino)-N-(3-(1,3-dioxo-1H-benzo[de]isoquinolin-2(3H)-yl)propyl)acetamide trihydrochloride], the IC50 with HCT-116 cells (Homo sapiens, HCT-116, 48 h) was over 50 µM; in the assay on HepG2 cells (Homo sapiens, HepG2, 48 h) it was over 50 µM; in the assay on K562 cells (Homo sapiens, K562, 48 h) it was 28 µM; with MDA-MB-231 cells it was 16.8 µM; with QSG-7701 cells (QSG7701, 48 h) it was 42.9 µM.
Regarding `NCCCNCCCNCCCN1C(=O)c2ccc(-c3ccccc3)cc2C1=O` [17b, 5-Phenyl-2-{3-[3-(3-aminopropylamino)-propylamino]propyl}isoindoline-1,3-dione trihydrochloride], the IC50 in the assay with HCT-116 cells (Homo sapiens, HCT-116, 48 h) is over 50 µM; in the assay with HepG2 cells (Homo sapiens, HepG2, 48 h), over 50 µM; with K562 cells (Homo sapiens, K562, 48 h), 28.2 µM; in the assay on QSG-7701 cells (QSG7701, 48 h) it was over 50 µM.
Consider `NCCCNCC(=O)NCCCN1C(=O)c2cccc3cccc(c23)C1=O` [11a, 2-(3-Aminopropylamino)-N-(3-(1,3-dioxo-1H-benzo[de]isoquinolin-2(3H)-yl)propyl)acetamide dihydrochloride], for which the IC50 amounted to 39.9 µM with HCT-116 cells (Homo sapiens, HCT-116, 48 h); 53.5 µM in the assay on HepG2 cells (Homo sapiens, HepG2, 48 h); 33.2 µM in the assay on K562 cells (Homo sapiens, K562, 48 h); 32.4 µM in the assay on MDA-MB-231 cells; 39.2 µM in the assay on QSG-7701 cells (QSG7701, 48 h).
The matching figures for `NCCCCNCCCCNCCCCNCC(=O)NCCCN1C(=O)c2cccc3cccc(c23)C1=O` [11f, 2-(4-(4-(4-Aminobutylamino)butylamino)butylamino)-N-(3-(1,3-dioxo-1H-benzo[de]isoquinolin-2(3H)-yl)propyl)acetamide tetrahydrochloride]: over 50 µM, over 50 µM, 26.2 µM, 57.1 µM and 50.6 µM.
Turning to `NCCCNCCCCNCCCN1C(=O)c2ccc(-c3ccccc3)cc2C1=O` [17c, 5-Phenyl-2-{3-[4-(3-aminopropylamino)-amino]propyl}isoindoline-1,3-dione trihydrochloride], the IC50 is over 50 µM in the assay with HCT-116 cells (Homo sapiens, HCT-116, 48 h); over 50 µM in the assay with HepG2 cells (Homo sapiens, HepG2, 48 h); over 50 µM in the assay with K562 cells (Homo sapiens, K562, 48 h); over 50 µM in the assay with QSG-7701 cells (QSG7701, 48 h).
Consider `NCCCCNCCCCNCCCCN1C(=O)c2ccc(-c3ccccc3)cc2C1=O` [17d, 5-Phenyl-2-{4-[4-(4-aminobutylamino)-butylamino]butyl}isoindoline-1,3-dione trihydrochloride], for which the IC50 in the assay on HCT-116 cells (Homo sapiens, HCT-116, 48 h) was over 50 µM; with HepG2 cells (Homo sapiens, HepG2, 48 h) it was over 50 µM; in the assay with K562 cells (Homo sapiens, K562, 48 h), over 50 µM; in the assay with QSG-7701 cells (QSG7701, 48 h) it was over 50 µM.
`CC(=O)c1ccc2c3c(cccc13)C(=O)N(CCCCNCCCCNCCCCN)C2=O` [5f, 2-{4-[4-(4-Aminobutylamino)butylamino]butyl}-6-acetyl-1H-benz[de]isoquinoline-1,3(2H)-dione trihydrochloride]: the IC50 stood at 19.6 µM with HCT-116 cells (Homo sapiens, HCT-116, 48 h); 30.7 µM with HepG2 cells (Homo sapiens, HepG2, 48 h); 18.8 µM in the assay with K562 cells (Homo sapiens, K562, 48 h); 21.2 µM in the assay with QSG-7701 cells (QSG7701, 48 h).
Consider `CC(=O)c1ccc2c3c(cccc13)C(=O)N(CCCCNCCCCN)C2=O` [5d, 2-[(2-Dimethylamino)ethyl-[4-(4-aminobutylamino)butyl]-6-acetyl-1H-benz[de]isoquinoline-1,3(2H)-dione dihydrochloride], for which the IC50 is 22.9 µM in the assay on HCT-116 cells (Homo sapiens, HCT-116, 48 h); 23.9 µM in the assay on HepG2 cells (Homo sapiens, HepG2, 48 h); 31.1 µM in the assay with K562 cells (Homo sapiens, K562, 48 h); 23.2 µM in the assay with QSG-7701 cells (QSG7701, 48 h).
